{
  "source": "paper PMC11311998",
  "about": "“AR71, Histamine H3 Receptor Ligand—In Vitro and In Vivo Evaluation (Anti-Inflammatory Activity, Metabolic Stability, Toxicity, and Analgesic Action)” (International Journal of Molecular Sciences, 2024)",
  "key": {"[1]": {"tested_on": "BV-2 cells", "parameters": "method as in PMID 36370200", "conditions": "LPS-treated BV-2 cells; cited from earlier work"}, "[2]": {"tested_on": "SH-SY5Y cells", "test": "cell number / growth, image cytometry", "type": "cell-based", "conditions": "Homo sapiens", "protocol": "(§1) To evaluate the growth dynamics of SH-SY5Y cells in the presence of AR71, neuroblastoma cells were treated with increasing concentrations (0.39–25 µM) of the compound tested for 24 or 72 h. Using image cytometry, we calculated the DNA content index as a 2N/4N DNA ratio to analyse the cell cycle distribution after 24 and 72 h of incubation with AR71.\nSH-SY5Y cells were initially seeded in 96-well plates at a density of 5000 cells per well in 120 μL of medium. After 24 h, the cells were exposed to different concentrations of AR71 for either 24 or 72 h. […] Subsequently, images of 16 fields per well were captured using the ArrayScan VTI HCS Reader from Thermo Fisher Scientific, Inc. (Thermo Fisher Scientific, Waltham, MA, USA), which was equipped with a 5× objective. The cell number was calculated as the sum of the Hoechst-33342-stained cell nuclei using Cell Cycle Bioapplication V3 software and expressed as a per cent of control. […] In the next step, a series of detailed images were acquired using the ArrayScan VTI HCS Reader equipped with a 10× objective to collect at least 500 nuclei/cells per replicate. The DNA cell content of single cells was analysed based on Hoechst-33342 fluorescence intensity of their nuclei using Cell Cycle Bioapplication V3 software and presented as the DNA 2N/4N ratio. […]"}, "[3]": {"tested_on": "SH-SY5Y cells", "test": "DNA content / cell cycle (2N/4N DNA ratio), image cytometry", "type": "cell-based, human", "protocol": "as §1\nSH-SY5Y cells were initially seeded in 96-well plates at a density of 5000 cells per well in 120 μL of medium. After 24 h, the cells were exposed to different concentrations of AR71 for either 24 or 72 h. Following a wash with PBS, the cells were fixed with 4% formaldehyde for 20 min and then stained with 1 µg/mL of Hoechst 33342 for 30 min at room temperature. Subsequently, images of 16 fields per well were captured using the ArrayScan VTI HCS Reader from Thermo Fisher Scientific, Inc. (Thermo Fisher Scientific, Waltham, MA, USA), which was equipped with a 5× objective. The cell number was calculated as the sum of the Hoechst-33342-stained cell nuclei using Cell Cycle Bioapplication V3 software and expressed as a per cent of control. The remaining adherent cells in culture wells reflected the cytotoxic potential of the tested compound. In the next step, a series of detailed images were acquired using the ArrayScan VTI HCS Reader equipped with a 10× objective to collect at least 500 nuclei/cells per replicate. The DNA cell content of single cells was analysed based on Hoechst-33342 fluorescence intensity of their nuclei using Cell Cycle Bioapplication V3 software and presented as the DNA 2N/4N ratio. All experiments were performed three times, each in four replicates. IC50 values were calculated with a non-linear fit to a sigmoidal dose–response curve (log compound vs. normalised response) using GraphPad Prism 6.07. The results are presented as mean ± SEM from at least three independent experiments. Statistical significance was evaluated using one-way ANOVA followed by Dunnett’s test. * p < 0.05, ** p < 0.01, and *** p < 0.001 indicate significant differences compared with the control counterparts."}},
  "data": [
    {"smiles": "COc1cc(/C=C/C(=O)c2ccc(OCCCN3CCCCC3)cc2)cc(OC)c1OC", "note": "[AR71, (E)-3-(3,4,5-trimethoxyphenyl)-1-(4-(3-(piperidin-1-yl)propoxy)phenyl)prop-2-en-1-one]", "values": [
      {"measurement": "effect on proinflammatory cytokines (IL-1β, IL-6, TNF-α), mRNA and protein level", "setting": "[1]", "result": "reduced the level of proinflammatory cytokines"},
      {"measurement": "IC50", "setting": "[2]; 24 h incubation", "result": 8.46, "unit": "µM"},
      {"measurement": "IC50", "setting": "[2]; 72 h incubation", "result": 3.19, "unit": "µM"},
      {"measurement": "effect on cell cycle", "setting": "[3]; 3.125–25 µM, 24 and 72 h", "result": "cell cycle arrest at the G2/M phase (4N)"},
      {"measurement": "IC50 for 2N/4N DNA ratio", "setting": "[3]; 24 h incubation", "result": 18.8, "unit": "µM"},
      {"measurement": "IC50 for 2N/4N DNA ratio", "setting": "[3]; 72 h incubation", "result": 4.54, "unit": "µM"}
    ]}
  ]
}
